The record followed here is patent publication EP0133550B1, “Process for producing arphamenine in high yield” (MICROBIAL CHEMISTRY RESEARCH FOUNDATION, priority 1983, dated 1985).

The target of the assay is T1, aminopeptidase B (Rattus norvegicus, UniProt O09175).
T1 sequence (O09175 1-650): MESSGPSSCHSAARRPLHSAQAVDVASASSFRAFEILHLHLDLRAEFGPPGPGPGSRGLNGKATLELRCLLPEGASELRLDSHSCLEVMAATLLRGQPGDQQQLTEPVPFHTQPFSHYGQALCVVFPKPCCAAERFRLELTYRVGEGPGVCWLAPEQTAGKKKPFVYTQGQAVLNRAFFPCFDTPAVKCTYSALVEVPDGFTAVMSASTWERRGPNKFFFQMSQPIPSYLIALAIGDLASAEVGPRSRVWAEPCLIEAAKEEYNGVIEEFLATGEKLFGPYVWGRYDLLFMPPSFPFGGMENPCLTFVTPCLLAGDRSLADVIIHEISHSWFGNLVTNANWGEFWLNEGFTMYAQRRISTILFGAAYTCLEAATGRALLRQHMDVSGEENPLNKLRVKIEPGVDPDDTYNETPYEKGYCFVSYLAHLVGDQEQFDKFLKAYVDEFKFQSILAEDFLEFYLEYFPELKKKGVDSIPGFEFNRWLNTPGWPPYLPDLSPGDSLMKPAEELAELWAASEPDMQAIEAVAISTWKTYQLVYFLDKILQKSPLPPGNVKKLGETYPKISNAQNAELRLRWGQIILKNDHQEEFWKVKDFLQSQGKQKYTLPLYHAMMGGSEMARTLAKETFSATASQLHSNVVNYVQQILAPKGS
The assay is described as follows: Inhibition of aminopeptidase B (improved method of Hoppusu et al., arginine-ß-naphthylamide substrate, absorbance at 525 nm). The class given is biochemical. The following applies: 0.002 M arginine-ß-naphthylamide, pH 7.0, 30 minutes at 37°C; read-out: IC50 (concentration which inhibited 50% of aminopeptidase B activity) (converted).

Method: The amount (potency) of arphamenine was determined by an improved method based on the method of Hoppusu et al. (V.K. HOPPUSU, K.K. MAKINEN & G.G. GLENNER, Archieves of Biochemistry and Biophysics 114, 557,1966). In detail, 0.5 ml of 0.1 M tris-hydrochloric acid buffer solution (pH 7.0) and 0.25 ml of a solution containing the specimen were added to 0.25 ml of 0.002 M arginine-ß-naphthylamide. The resulting mixed solution was heated for 3 minutes at 37°C. To the heated solution was added 5 pl of a solution of aminopeptidase B that had been purified by the use of DEAE-cellulose according to the enzyme- purification technique of Hoppusu et al.
The mixture was reacted for 30 minutes at 37°C, followed by adding to the reaction mixture 1 ml of 1.0 M acetic acid buffer solution (pH 4.2) containing Fast Garnet GBC@ (0-aminoazotoluene diazonium salt) in a concentration of 1 mg/ml and the surfactant Tween 20@ in a concentration of 10%.
The resulting mixture was allowed to stand for 15 minutes at room temperature, and measured for adsorbance (a) at 525 nm. Simultaneously, a blank absorbance (b) was obtained using an arphamenine- free buffer solution only. Percent inhibition of aminopeptidase B was calculated from the equation [(b-a)/b] x 100.

On to `N=C(N)NCCCC(N)C(=O)CC(Cc1ccc(O)cc1)C(=O)O` (stereo not shown) [arphamenine B], for which the IC50 was 5.95 nM.
